Reference: publication PMC7217877, “N-AS-triggered SPMs are direct regulators of microglia in a model of Alzheimer’s disease” (Nature Communications, 2020)
Several values for one entry are separate records, joined by “and”; a condition that tells them apart may be missing. Identical values can stand only once. Like-named read-outs stand apart in the source and are kept apart here.

What was measured:
[1] = single-dose brain PK and brain distribution; type: in vivo, C57BL/6 mice; details: mouse; for Kp / MRT / half-life / AUC(0-inf) / AUC(0-t): C57BL/6, brain; for AUC(0-inf): read-out: AUCinf (Brain); for AUC(0-t): read-out: AUClast (Brain)
Description: C57BL/6 mice were administered N-AS (Sigma-Aldrich, 01912) at doses of 1 mg kg^−1 (i.v.) or 10 mg kg^−1 (p.o.). Venous blood samples were collected at 5, 15, and 30 min, and 1, 2, 4, 8, and 24 h postdose. A 30 μl of plasma was separated from whole blood by centrifugation and stored at −80 °C until analysis. Also, brain samples were collected at 1, 2, 4, and 24 h postdose and heart, liver, and kidney samples were collected at 24 h postdose, thoroughly rinsed with physiological saline and weighed. Twenty percentage of tissue homogenates were prepared by homogenizing the tissue samples with four volumes of saline. A 30 μl aliquot of plasma or a 50 μl aliquot of tissue homogenates were deproteinized by addition of 200 μl cold methanol (containing naringenin as internal standard at 20 ng ml^−1) and centrifuged at 15,974×g for 10 min. A 10 μl aliquot of the supernatant was injected into Agilent 6470 LC-MS/MS system. Separation was performed on a Synergy Polar RP column (4 μm particle size, 2.0 mm ×150 mm, Phenomenex) using a mobile phase that consisted of methanol and water (85:15, v/v) with 0.1% formic acid at a flow rate of 0.2 ml min^−1. Quantification was carried out using multiple reaction monitoring (MRM) at m/z 340.3→263.3 for N-AS and m/z 271.1→151.3 for naringenin (internal standard) in negative ionization mode and collision energy of 20 eV. p, and relative oral BA values were calculated as follows: BA% = AUCp.o. normalized by p.o. dose/AUCi.v. normalized by i.v. dose × 100.

astrocyte = assay: N-AS generation in primary cultured cells (LC-MS/MS); type: cell-based, C57BL/6 mice; design: dose or concentration left out as unconfirmed; details: Ab, replicates
Description: (§1) Reactions were quenched by adding equal volume of cold methanol. A 100 μl aliquot of the reaction mixture was mixed with 30 μl of distilled water containing 5 ng ml^−1 of furosemide (internal standard) for 1 min and vigorously mixed with […] of ethyl acetate for 20 min. After centrifugation at 16,000×g for 10 min, the mixtures were kept for 2 h for freezing aqueous phase. The upper ethyl acetate layer was transferred to a clean tube and evaporated to dryness under a gentle stream of nitrogen. Then, the dried extract was reconstituted in 100 µl of mobile phase and 10 µl aliquot of the solution was injected into an Agilent 6470 Triple Quad LC–MS/MS system (Agilent, Wilmington, DE) coupled with an Agilent 1260 HPLC system. […] Quantification was carried out using multiple reaction monitoring (MRM) at m/z 340.3→263.3 for N-AS and m/z 328.9→284.8 for furosemide (internal standard) in negative ionization mode and collision energy of 20 eV. […]
(§2) To confirm the generation and roles of N-AS in neurons, cells from E18 C57BL/6 mice were prepared as previously described. […] Aβ 1–42 (10 μM, 24 h, Invitrogen, 03112) was exposed to neurons and the cells were analyzed for the generation and roles of N-AS. […]

microglia = assay: as above; type: cell-based, C57BL/6 mice; design: dose or concentration left out as unconfirmed; details: Ab, replicates
Description: as §1, §2

Row | Kp ([1]; iv, i.v. 1 mg/kg) | MRT ([1]; iv, i.v. 1 mg/kg) | half-life ([1]; iv, i.v. 1 mg/kg) | AUC(0-inf) ([1]; iv, i.v. 1 mg/kg) | AUC(0-t) ([1]; iv, i.v. 1 mg/kg) | Kp ([1]; po, p.o. 10 mg/kg) | MRT ([1]; po, p.o. 10 mg/kg) | half-life ([1]; po, p.o. 10 mg/kg) | AUC(0-inf) ([1]; po, p.o. 10 mg/kg) | AUC(0-t) ([1]; po, p.o. 10 mg/kg) | Cmax (Brain) ([1]; i.v. 1 mg/kg) | Cmax (Brain) ([1]; p.o. 10 mg/kg) | Molecule | N-AS quantification (Fig 3a) (astrocyte) | N-AS quantification (Fig 3a) (microglia)
1 | 2.16 | 6.94 ± 0.62 h | 6.31 ± 0.38 h | 1.44 ± 0.228 µg·h/mL | 1.34 ± 0.224 µg·h/mL | 3.18 | 8.64 ± 1.01 h | 22 ± 6.07 h | 1.75 ± 0.362 µg·h/mL | 0.895 ± 0.0605 µg·h/mL | 0.16518 ± 0.01842 µg/mL | 0.09027 ± 0.00295 µg/mL | CCCCCCCCCCCCC/C=C/[C@@H](O)[C@H](CO)NC(C)=O [N-AS, N-((2S,3R,E)-1,3-Dihydroxyoctadec-4-en-2-yl)acetamide] | – | –
2 | – | – | – | – | – | – | – | – | – | – | – | – | Ab: Aβ 1–42 (Invitrogen, 03112) used to induce an AD environment in cells | 0.05349 and 0.0246 and 0.05789 and 0.03905 and 0.04125 and 0.04847 | 1.15 and 1.365 and 1.237 and 1.2575 and 1.301 and 1.247
